Laboratory results reported in US11590129B2, “Combination therapy with an antitumor alkaloid” (PHARMA MAR, S.A., priority 2010, dated 2023).
Read-outs that look alike come from different tables or passages of the source.

Key:
[1] = system: A673 human rhabdomyosarcoma cell line; assay: cells
Method: (§1) a. […] Briefly, cells were harvested and seeded in 96 well microtiter plates at a density of 5,000 cells in 150 μL of culture medium and incubated for 24 hours in drug-free medium before treatment with vehicle alone or test compounds for 72 h.
(§2) The cytotoxic effect was measured by the MTT reduction assay, in which 3-(4,5-Dimethylthiazol-2-yl)-2,5-diphenyltetrazolium bromide, a tetrazole, which is reduced to purple formazan in the mitochondria of living cells, was used. MTT (50 μL of 1 mg/mL stock solution) was added to the wells and incubated for 8 hours at 37° C. until formazan crystals were formed. After gently removing the culture medium, DMSO was added to dissolve the insoluble purple formazan product into a colored solution. […] Results were expressed as percentage of control cell growth.
(§3) b. In a second set of assays, A549 human tumor cells were incubated with PM01183 in combination with each of the agents mentioned above.
(§4) As a visual aid, response values were plotted on a scatter plot with dose ratios given on the x-axis and % response values on the y-axis. […] In cases where response values at the two endpoints were approximately equivalent, points lying above or below this predicted line of additivity could be interpreted as representing antagonistic or synergistic drug interaction, respectively.
(§5) Additional serial dilutions were prepared in serum-free culture medium to achieve a final 4× concentration. Aliquots of 50 μL of each diluted compound were added per well.
A673 was the human rhabdomyosarcoma cell line selected for this assay.

[2] = system: HepG2 human hepatocellular liver carcinoma cell line; assay: MTT cytotoxicity assay in HepG2 cells: IC50 of single agents and combinations with PM01183; type: cell-based
Method: as §1, §2, §3, §4, §5
HepG2 was the human hepatocellular liver carcinoma cell line selected for this assay.

[3] = system: IGROV-1 human ovarian adenocarcinoma cell line; assay: cells
Method: as §1, §2, §3, §4, §5
IGROV-1 was the human ovarian adenocarcinoma cell line selected for this assay.

[4] = system: PANC-1 human pancreatic carcinoma cell line; assay: cells
Method: as §1, §2, §3, §4, §5
PANC-1 was the human pancreatic carcinoma cell line selected for this assay.

[5] = system: A549 human lung carcinoma cell line; assay: MTT cytotoxicity assay in A549 cells: IC50 of single agents and combinations with PM01183; type: cell-based
Method: as §5
A549 was the human lung carcinoma cell line selected for this assay.
as §1, §2, §3, §4

[6] = system: HGC-27 human gastric carcinoma cell line; assay: cells
Method: as §1, §2, §3, §4, §5
HGC-27 was the human gastric carcinoma cell line selected for this assay.

[7] = system: HT-29 human colon adenocarcinoma cell line; assay: cells
Method: as §1, §2, §3, §4, §5
HT-29 was the human colon adenocarcinoma cell line selected for this assay.

[8] = system: U87-MG human glioblastoma cell line; assay: cells
Method: as §1, §2, §3, §4, §5
U87-MG was the human glioblastoma cell line selected for this assay.

[9] = system: MDA-MB-231 human breast adenocarcinoma cell line; assay: cells
Method: as §1, §2, §3, §4, §5

[10] = system: RXF-393 human kidney carcinoma cell line; assay: cells
Method: as §1, §2, §3, §4, §5

[11] = system: PC-3 human prostate cancer cell line; assay: cells
Method: as §1, §2, §3, §4, §5
PC-3 was the human prostate adenocarcinome cell line selected for this assay.

[12] = system: SK-MEL-2 human melanoma cell line; assay: cells
Method: as §1, §2, §3, §4, §5
SK-MEL-2 was the human melanoma cell line selected for this assay.

Row | SMILES | IC50 ([3]; Homo sapiens, IGROV-1, 72 h) [µM] | IC50 ([4]; Homo sapiens, PANC-1, 72 h) [µM] | IC50 ([6]; Homo sapiens, HGC-27, 72 h) [µM] | IC50 ([7]; Homo sapiens, HT-29, 72 h) [µM] | IC50 ([8]; Homo sapiens, U-87 MG, 72 h) [µM] | IC50 ([9]; Homo sapiens, MDA-MB-231, 72 h) [µM] | IC50 ([10]; Homo sapiens, RXF 393, 72 h) [µM] | IC50 ([11]; Homo sapiens, PC-3, 72 h) [µM] | IC50 [1] [µM] | IC50 [3] [µM] | IC50 ([5]; read-out: IC50) [µM] | IC50 [7] [µM] | IC50 [9] [µM] | IC50 [11] [µM] | also measured
1 | C#Cc1cccc(Nc2ncnc3cc(OCCOC)c(OCCOC)cc23)c1 [Erlotinib, erlotinib] | 7.91 | 0.416 | 7.5 | 25.6 | 149 | 100 | 4.8 | 233 |  |  |  |  |  |  | IC50 ([1]; Homo sapiens, A673, 72 h): 50 µM; IC50 ([2]; Homo sapiens, HepG2, 72 hours drug exposure, MTT, read-out: IC50): 8.6 µM; IC50 ([5]; Homo sapiens, A549, 72 h): 10 µM
2 | CCc1c2c(nc3ccc(OC(=O)N4CCC(N5CCCCC5)CC4)cc13)-c1cc3c(c(=O)n1C2)COC(=O)[C@]3(O)CC [Irinotecan, irinotecan] | 10 | 90 | 4 | 9 | 7.54 | 8.5 | 14 | 70 |  |  |  |  |  |  | IC50 ([2]; Homo sapiens, HepG2, 72 h): 1 µM; IC50 ([12]; Homo sapiens, SK-MEL-2, 72 h): 18 µM
3 | CO[C@@]12[C@H](COC(N)=O)C3=C(C(=O)C(C)=C(N)C3=O)N1C[C@@H]1N[C@@H]12 [Mitomycin C, mitomycin C] |  |  |  |  |  |  |  |  | 2.99 | 3 | 249 | 2 | 2 | 10 | IC50 [12]: 0.9 µM; IC50 [10]: 9 µM
4 | O=C1[O][Pt]2([NH][C@@H]3CCCC[C@H]3[NH]2)[O]C1=O [Oxaliplatin, oxaliplatin] |  |  |  |  |  |  |  |  | 78 | 8.5 | 900 | 103 | 108 | 171 | IC50 ([2]; read-out: IC50): 28 µM; IC50 [4]: 184 µM; IC50 [6]: 106 µM; IC50 [8]: 190 µM
